Assay results reported in patent US7227038B2, “Adamantane derivatives, processes for their preparation and pharmaceutical composition containing them” (AstraZeneca AB, priority 2003, dated 2007).
Where a name gives a salt, the structure may show the parent alone.

Experiments:
[1] = target: T1, P2X7 receptor (Homo sapiens, UniProt Q99572); assay: bbATP-induced ethidium bromide uptake (fluorescence) in THP-1 cells, P2X7 receptor antagonist activity; type: cell-based; settings: 10^-5M bbATP, 37° C. for one hour, read-out: pIC50 (negative logarithm of the concentration of test compound necessary to reduce the bbATP agonist activity by 50%) (converted)
T1 construct: 200 μl of a suspension of THP-1 cells; endogenous in cells; host or cells: THP-1 cells
T1 sequence (Q99572 1-595): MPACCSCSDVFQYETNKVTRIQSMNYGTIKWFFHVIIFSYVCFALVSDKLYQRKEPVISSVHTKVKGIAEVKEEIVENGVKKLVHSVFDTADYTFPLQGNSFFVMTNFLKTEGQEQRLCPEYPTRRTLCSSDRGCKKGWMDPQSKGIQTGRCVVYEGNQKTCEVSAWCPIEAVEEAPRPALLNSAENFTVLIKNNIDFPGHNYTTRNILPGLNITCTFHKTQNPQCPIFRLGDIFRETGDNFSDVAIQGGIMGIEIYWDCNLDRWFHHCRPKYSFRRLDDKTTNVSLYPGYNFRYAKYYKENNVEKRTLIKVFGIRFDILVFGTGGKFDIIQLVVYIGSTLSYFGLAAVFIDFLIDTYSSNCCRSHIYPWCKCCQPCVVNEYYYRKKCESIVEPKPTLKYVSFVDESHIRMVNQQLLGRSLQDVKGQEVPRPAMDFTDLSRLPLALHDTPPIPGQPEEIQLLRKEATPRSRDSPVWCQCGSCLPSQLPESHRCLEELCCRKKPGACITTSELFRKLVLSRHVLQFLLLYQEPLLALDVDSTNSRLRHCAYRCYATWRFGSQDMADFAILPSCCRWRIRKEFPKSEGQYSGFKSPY
Text: Certain compounds such as benzoylbenzoyl adenosine triphosphate (bbATP) are known to be agonists of the P2X7 receptor, effecting the formation of pores in the plasma membrane (Drug Development Research (1996), 37(3), p.126). Consequently, when the receptor is activated using bbATP in the presence of ethidium bromide (a fluorescent DNA probe), an increase in the fluorescence of intracellular DNA-bound ethidium bromide is observed. The increase in fluorescence can be used as a measure of P2X7 receptor activation and therefore to quantify the effect of a compound on the P2X7 receptor.
In this manner, each of the title compounds of the Examples was tested for antagonist activity at the P2X7 receptor. Thus, the test was performed in 96-well flat bottomed microtitre plates, the wells being filled with 250 μl of test solution comprising 200 μl of a suspension of THP-1 cells (2.5×10^6 cells/ml) containing 10^−4M ethidium bromide, 25 μl of a high potassium buffer solution containing 10^−5M bbATP, and 25 μl of the high potassium buffer solution containing 3×10^−5M test compound. The plate was covered with a plastics sheet and incubated at 37° C. for one hour. The plate was then read in a Perkin-Elmer fluorescent plate reader, excitation 520 nm, emission 595 nm, slit widths: Ex 15 nm, Em 20 nm. […]

Row | melting point | IC50 [1] | Structure (SMILES)
1 | 196 °C | – | CNC[C@@H](O)Cc1ccc(Cl)c(C(=O)NCC23CC4CC(CC(C4)C2)C3)c1 (as salt: hydrochloride)
2 | 218 °C | – | CCNC[C@H](O)Cc1ccc(Cl)c(C(=O)NCC23CC4CC(CC(C4)C2)C3)c1 (as salt: hydrochloride)
3 | 189 °C | – | CC(C)NC[C@H](O)Cc1ccc(Cl)c(C(=O)NCC23CC4CC(CC(C4)C2)C3)c1 (as salt: hydrochloride)
4 | 225 °C | – | O=C(NCC12CC3CC(CC(C3)C1)C2)c1cc(C[C@@H](O)CNCCCO)ccc1Cl (as salt: hydrochloride)
5 | 214 °C | – | CCNC[C@@H](O)Cc1ccc(Cl)c(C(=O)NCC23CC4CC(CC(C4)C2)C3)c1 (as salt: hydrochloride) [Example 14, 2-Chloro-5-[(2S)-3-(ethylamino)-2-hydroxypropyl]-N-(tricyclo [3.3.1.1^3,7]dec-1-ylmethyl)-benzamide, hydrochloride salt]
6 | > 200 °C (dec.) | 10 nM | CNC[C@@H](O)CCc1ccc(Cl)c(C(=O)NCC23CC4CC(CC(C4)C2)C3)c1.Cl [Example 1, 2-Chloro-5-[(3S)-3-hydroxy-4-(methylamino)butyl]-N-(tricyclo[3.3.1.1^3,7]dec-1-ylmethyl)benzamide, hydrochloride]
7 | – | 3.98 nM | CN(C)C[C@H](O)Cc1ccc(Cl)c(C(=O)NCC23CC4CC(CC(C4)C2)C3)c1 [Example 8, 2-Chloro-5-[(2R)-3-(dimethylamino)-2-hydroxypropyl]-N-(tricyclo[3.3.1.1^3,7]dec-1-ylmethyl)-benzamide, hydrochloride]
